Experiments:
[1] = system: Aedes aegypti; assay: Spatial repellency, high-throughput glass tube assay; assay type: in vivo; details: concentration repelling 50% of adult female Aedes aegypti, treated filter paper in glass tube
Experimental: Adult female non-bloodfed Aedes aegypti that were 2-10 days post-eclosion were cold-anesthetized by placing on ice for several minutes. Each replicate consisted of 16 anesthetized females transferred to a glass tube (length 12.5 cm, outer diameter 2.5 cm) (TriKinetics Inc., Waltham, MA). Glass tubes were then enclosed on each end by netting held in place with blue caps removed from 50-mL polypropylene centrifuge tubes (Falcon™; Corning Inc., Corning, NY). Mosquitoes were allowed at least 15 min to recover from cold anesthetization. Round filter papers (diameter 2.5 cm) (Sigma-Aldrich Chemical Co., CITY, ST) were treated with 50 μL solution of compound dissolved in acetone at different concentrations. Treated filter papers were allowed to air dry for 10 min to allow for acetone evaporation, at which point filter papers were placed inside the cut ends of 50-mL polypropylene centrifuge tubes. The end caps with treated filter paper were then placed on the ends of the glass tubes, replacing the blue caps, with the netting left to prevent mosquito escape.
Glass tube bioassay setups were placed on a contrasting white background to facilitate observing and counting mosquitoes with a black line drawn to mark the center of the tube length. Control bioassays were set up with filter papers treated with 50 μL of acetone. Repellency was calculated as a repellency ratio using the formula: number of mosquitoes on the experimental treatment side/16, where a value of 0 is equal to full repellency and a value of 0.5 indicates no effect—i.e., an even distribution of mosquitoes on either side the tube midline. Data were recorded at 15 min, 30 min, and 1 hr for repellency and knockdown, as well as at 24 hr for mortality. […] Each concentration was replicated at least three times. After use, glass tubes were decontaminated by washing in soapy water and rinsed with acetone and distilled water. Treatment caps and nettings were washed using soapy water and rinsed with distilled water. Data were analyzed using a 4-parameter logistic regression in GraphPad Prism 9. The effective concentration that repelled 50% of mosquitoes (EC50) was used to compare different treatments.

[2] = system: Aedes albopictus; details: compounds identified from massoia and nutmeg essential oils; cited from earlier work
[3] = system: mosquitoes or biting flies; assay: Contact repellency, cloth patch test (minimum effective dose); assay type: in vivo; details: minimum effective dose on cloth
Experimental: The cloth patch test can be used to assess the effective repellency duration for a particular application rate of a chemical to cloth being worn on the arm of a human subject. The test allows candidate repellents to be tested without contacting the skin. The candidate substance is dissolved initially in a suitable solvent which is typically acetone; however, can be extended to ethanol or DMSO (dimethyl sulfoxide). The typical protocol for a limited quantity of substance involves dissolving up to 75 mg of the candidate repellent into 1 mL of an appropriate volatile solvent, such as acetone or ethanol, in a 2-dram vial. The choice of solvent depends upon the miscibility characteristics of the candidate repellent. A 50 cm^2 (5 cm×10 cm) clean, untreated piece of muslin cloth is rolled, placed in the vial and sealed therein to allow the cloth to saturate completely with the solution. […] Prior to the bioassay, the saturated cloth is removed and each end of the cloth is attached to a 5 cm×2.5 cm piece of cardstock paper. To each card, masking tape is attached. The card/cloth assembly is then allowed to dry for 15 min hanging from a rack by the masking tape. This time is adequate to allow complete evaporation of the solvent from the cloth.
To prepare the arm for testing, the volunteer first places a latex or nitrile glove (extended length beyond the wrist) over the hand and arm and then pulls a nylon hose stocking over the hand and arm up to a point that is past the elbow. This glove prevents mosquitoes from biting through to the hand, wrist, and part of the arm where the glove provides protection. A thick plastic sleeve with a Velcro® strip is then fastened around the arm. There is a 4 cm×8 cm window opening cut into the sleeve. Volunteers may elect to use either of the two designs of this sleeve: one has a window opening with a screen mesh, the other is completely open. The cloth card frame is then taped onto the forearm at a position overlapping the window opening of the sleeve. This allows attractive human odors to escape through the opened area of the sleeve and this small window is the only area accessible for bites. Once the cloth/card assembly is on the arm, the arm is placed inside an insect cage with mosquitoes or biting flies for one minute. Typically, the test involves 500 biting flies or mosquitoes, but can be performed at a variety of biting pressures from 200-2000 individuals, but is rarely ever performed at a pressure of greater than 2000 in a cage. […]
If a sufficient quantity of the candidate repellent is available, the minimum effective dose (MED) can be determined. […] In these cases, stoichiometric equivalents, i.e., micromolar quantities, are applied to the cloth and tested as described above. […]

[4] = system: Aedes aegypti mosquitoes (susceptible—Orlando strain); assay: Topical application, knockdown and mortality; details: in vivo
Experimental: Aedes aegypti mosquitoes (susceptible—Orlando strain) were reared using standard protocols at the United States Department of Agriculture, Agricultural Research Service Center for Medical, Agricultural, and Veterinary Entomology (CMAVE) in Gainesville, FL. Mosquitoes raised from pupae were aspirated from colony cages and anesthetized on ice. Mosquitoes were then treated with 0.2 μL of variable concentrations of insecticidal active ingredients using a repeating microapplicator (Hamilton Co., Reno, NV). Ten mosquitoes were used per concentration and at least three different biological cohorts were used in the analysis. Knockdown (defined as inability to fly or orient in the upright direction) was recorded at 1 hr or other time points post application (depending on the experiment), whereas mortality (defined as no movement-ataxia) was recorded at 24 hr. Concentrations that produced 10-90% mortality at 24 hr post exposure were used in the analysis to calculate the lethal dose required to kill 50% of the population (LD50). SAS 9.4 was used to calculate the LD50 values using a PROC PROBIT model with Abbott's correction to account for any control mortality.

[5] = system: central nervous system (CNS) of third-fourth-instar Aedes aegypti larvae; assay: Central nervous system recording of mosquito larvae; details: applied at 100 μM
Experimental: Extracellular recordings were performed on the central nervous system (CNS) of third-fourth-instar Aedes aegypti larvae as previously described in Norris et al., “Recording central neurophysiological output from mosquito larvae for neuropharmacological and insecticide resistance studies”, Journal of Insect Physiology, 135 (2021) 104319. Mosquito larvae were pinned down and dissected to expose the descending ventral nerve cord in a saline bath (157 mM NaCl, 3 mM KCl, 2 mM CaCl2), 4 mM HEPES). The ventral nerve cord was severed using a small forceps between the second and third abdominal ganglion. Descending electrical activity was monitored by drawing emanating nerve fibers from the ventral nerve cord into a suction electrode connected to an AC/DC differential amplifier (Model 3000, A-M Systems, Inc., Carlsborg, WA). Signals were subjected to window amplitude discrimination and converted into a rate plot, expressed in Hertz (Hz), using LabChart 7 Pro software (AD Instruments Inc. Colorado Springs, CO). Noise (60 Hz) was eliminated using a Hum Bug (A-M Systems, Sequim, WA,).
Electrical activity was monitored for approximately 5-10 min to establish a baseline CNS firing rate before test solutions were added to the bath in DMSO at 1 μL of solution diluted into 999 μL of saline. All concentrations of active ingredients were expressed as their final concentrations in saline. […]

Compound | EC50 (spatial repellency) [1] | larvicidal activity (in words) [2] | other results
CCCCCCCC1CCCC(=O)O1 (centres unmarked) [5-dodecanolide] | 77.11 μg/cm^2 | – | –
CCCCCCC[C@@H]1CC=CC(=O)O1 [C12 massoia lactone, C-12-massoia lactone] | – | strong larvicidal activity | –
CCN(CC)C(=O)c1cccc(C)c1 [DEET, N,N-Diethyl-meta-toluamide] | – | – | MED [3]: 0.009 ± 0.003 ^B mg/cm^2
CCCCN(CCC(=O)OCC)C(C)=O [IR3535, ethyl butylacetylaminopropionate, reference compound] | 91.8 μg/cm^2 | – | –
O=C(OCc1ccccc1)c1ccccc1 [benzyl benzoate] | – | strong larvicidal activity | –
O=C(OCc1ccccc1)c1ccccc1O [benzyl salicylate] | – | strong larvicidal activity | –
CCC(C)OC(=O)N1CCCCC1CCO (centres unmarked) [icaridin] | – | – | MED [3]: 0.015 ± 0.004 ^B mg/cm^2
CCCCCC1CC=CC(=O)O1 (centres unmarked) [massoia lactone, 2H-pyran-2-one, 5,6-dihydro-6-pentyl-] | 5.9 μg/cm^2 | strong larvicidal activity | MED [3]: 0.007 ± 0.002 ^B mg/cm^2; Slope (LD50) [4]: 8.3; nerve block (CNS firing) [5]: some nerve block
CC1(C)C(C=C(Cl)Cl)C1C(=O)OCc1cccc(Oc2ccccc2)c1 (centres unmarked) [permethrin] | – | – | MED [3]: 0.100 ± 0.022 ^A mg/cm^2
C=C1CCC2(C(C)C)CC12 (centres unmarked) [sabinene] | – | strong larvicidal activity | –
CC1=CCC(=C(C)C)CC1 [terpinolene] | – | strong larvicidal activity | –
CCCCCc1cccc(=O)o1 [α-amyl-pyrone] | 6.1 μg/cm^2 | – | –
CCCCCCCC1CCC(=O)O1 (centres unmarked) [γ-undecalactone] | 18.32 μg/cm^2 | – | –
C/C=C/C(=O)C1C(C)C=CCC1(C)C (centres unmarked) [δ-damascone] | 108.5 μg/cm^2 | – | –
jasmolactone | 60.5 μg/cm^2 | – | –
δ-undecalactone | 29.5 μg/cm^2 | – | –
